Experimental data published in PubChem BioAssay AID330 (DTP/NCI, 2004).
Inconclusive results and toxic doses are left out. How the source made its calls: active means survival T/C of 150% or more; inactive means T/C below 125% in these data.

System: P388 leukemia ip, CD2F1 mice, survival T/C
Experiment: NCI In Vivo Anticancer Drug Screen. Data for tumor model P388 Leukemia (intraperitoneal) in CD2F1 (CDF1) mice
Details: endpoint: median survival time, higher = longer survival
Outline: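 Mice carrying the transplanted tumor received test compound or vehicle. Survival was recorded in each group, and the value is the treated-group measurement divided by that of the vehicle-treated control group.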

Measured: T/C

COC(=O)C1(CC(=O)c2cccs2)NC(=S)NC(=O)C1C#N (centres undefined)
inactive: dose: 60.0 mg/kg/injection, schedule: Q01DX005 (ip), vehicle: saline 98 % of control | dose: 120.0 mg/kg/injection, schedule: Q01DX005 (ip), vehicle: saline 100 % of control | dose: 240.0 mg/kg/injection, schedule: Q01DX005 (ip), vehicle: saline 94 % of control

CCOC(=O)c1ccccc1NC(=O)c1ccccc1
inactive: dose: 25.0 mg/kg/injection, schedule: Q01DX009 (ip), vehicle: saline with Tween-80 93 % of control | dose: 50.0 mg/kg/injection, schedule: Q01DX009 (ip), vehicle: saline with Tween-80 94 % of control | dose: 100.0 mg/kg/injection, schedule: Q01DX009 (ip), vehicle: saline with Tween-80 103 % of control | dose: 200.0 mg/kg/injection, schedule: Q01DX009 (ip), vehicle: saline with Tween-80 111 % of control

OCC1CCN(CCOCc2ccccc2)C1 (centres undefined)
inactive: dose: 60.0 mg/kg/injection, schedule: Q01DX005 (ip), vehicle: saline with Tween-80 94 % of control | dose: 120.0 mg/kg/injection, schedule: Q01DX005 (ip), vehicle: saline with Tween-80 102 % of control
